Publication PMC6199744, “Development of Chemical Proteomics for the Folateome and Analysis of the Kinetoplastid Folateome” (ACS Infectious Diseases, 2018)
Read-outs that look alike come from different tables or passages of the source.

Tests used:
Format in all cases: binding
[1] = biological target: T1, HeLa cell extract proteins (Homo sapiens, UniProt O75489); settings: HeLa; protein NDUFS3
T1 construct: endogenous in cells; host or cells: HeLa cell extract

[2] = biological target: T2, HeLa cell extract proteins (Homo sapiens, UniProt Q06323); settings: HeLa; protein PSME1
T2 construct: endogenous in cells; host or cells: HeLa cell extract

[3] = biological target: T3, HeLa cell extract proteins (Homo sapiens, UniProt Q14746); settings: captured protein COG2; HeLa
T3 construct: endogenous in cells; host or cells: HeLa cell extract
T3 sequence (Q14746 1-738): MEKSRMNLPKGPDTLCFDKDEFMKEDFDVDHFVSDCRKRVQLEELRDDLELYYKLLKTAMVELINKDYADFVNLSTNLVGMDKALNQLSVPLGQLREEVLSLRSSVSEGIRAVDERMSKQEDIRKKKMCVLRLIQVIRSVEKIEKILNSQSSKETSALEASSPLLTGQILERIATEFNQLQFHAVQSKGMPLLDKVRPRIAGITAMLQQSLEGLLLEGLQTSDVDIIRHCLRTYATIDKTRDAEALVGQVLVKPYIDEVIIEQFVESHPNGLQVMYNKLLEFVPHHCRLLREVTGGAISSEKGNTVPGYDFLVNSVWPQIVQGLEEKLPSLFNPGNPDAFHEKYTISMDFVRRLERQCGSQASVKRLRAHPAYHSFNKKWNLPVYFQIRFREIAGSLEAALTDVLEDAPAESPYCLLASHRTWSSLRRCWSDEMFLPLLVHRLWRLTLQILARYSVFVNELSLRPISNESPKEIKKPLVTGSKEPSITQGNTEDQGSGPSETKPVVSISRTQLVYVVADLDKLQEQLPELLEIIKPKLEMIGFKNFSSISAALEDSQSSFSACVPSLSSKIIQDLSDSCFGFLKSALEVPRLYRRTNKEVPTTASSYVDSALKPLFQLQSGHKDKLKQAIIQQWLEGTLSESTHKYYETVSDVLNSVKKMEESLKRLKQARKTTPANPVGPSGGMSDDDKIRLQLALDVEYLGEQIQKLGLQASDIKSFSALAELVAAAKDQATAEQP

[4] = biological target: T4, HeLa cell extract proteins (Homo sapiens, UniProt P46109); settings: HeLa; protein CRKL
T4 construct: endogenous in cells; host or cells: HeLa cell extract

[5] = biological target: T5, HeLa cell extract proteins (Homo sapiens, UniProt Q13616)
T5 construct: endogenous in cells; host or cells: HeLa cell extract

[6] = biological target: T6, HeLa cell extract proteins (Homo sapiens, UniProt O00462)
T6 construct: endogenous in cells; host or cells: HeLa cell extract
T6 sequence (O00462 18-879): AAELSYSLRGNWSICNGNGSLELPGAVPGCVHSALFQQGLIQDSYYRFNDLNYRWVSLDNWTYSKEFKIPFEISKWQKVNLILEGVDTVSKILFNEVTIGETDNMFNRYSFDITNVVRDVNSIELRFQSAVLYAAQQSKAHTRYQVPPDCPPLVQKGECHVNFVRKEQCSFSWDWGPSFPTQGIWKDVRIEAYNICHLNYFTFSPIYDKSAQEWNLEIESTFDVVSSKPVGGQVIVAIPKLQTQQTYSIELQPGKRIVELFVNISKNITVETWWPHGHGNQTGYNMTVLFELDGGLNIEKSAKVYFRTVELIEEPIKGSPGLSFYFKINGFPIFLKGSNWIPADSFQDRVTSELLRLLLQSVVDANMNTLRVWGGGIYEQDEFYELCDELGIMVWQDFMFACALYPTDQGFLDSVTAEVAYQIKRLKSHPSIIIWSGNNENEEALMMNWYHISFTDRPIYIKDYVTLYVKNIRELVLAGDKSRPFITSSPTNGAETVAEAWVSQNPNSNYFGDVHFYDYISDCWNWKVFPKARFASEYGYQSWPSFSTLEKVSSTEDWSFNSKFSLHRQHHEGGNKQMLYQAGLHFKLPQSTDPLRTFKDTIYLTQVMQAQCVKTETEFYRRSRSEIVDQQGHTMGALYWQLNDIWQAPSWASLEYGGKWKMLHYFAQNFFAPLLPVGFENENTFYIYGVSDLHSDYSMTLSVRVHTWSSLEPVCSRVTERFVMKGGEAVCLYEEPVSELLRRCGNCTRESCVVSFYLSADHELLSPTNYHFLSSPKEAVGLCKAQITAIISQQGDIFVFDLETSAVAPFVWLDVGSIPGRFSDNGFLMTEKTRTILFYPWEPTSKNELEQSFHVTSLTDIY

[7] = biological target: T7, HeLa cell extract proteins (Homo sapiens, UniProt Q12904)
T7 construct: endogenous in cells; host or cells: HeLa cell extract
T7 sequence (Q12904 1-312): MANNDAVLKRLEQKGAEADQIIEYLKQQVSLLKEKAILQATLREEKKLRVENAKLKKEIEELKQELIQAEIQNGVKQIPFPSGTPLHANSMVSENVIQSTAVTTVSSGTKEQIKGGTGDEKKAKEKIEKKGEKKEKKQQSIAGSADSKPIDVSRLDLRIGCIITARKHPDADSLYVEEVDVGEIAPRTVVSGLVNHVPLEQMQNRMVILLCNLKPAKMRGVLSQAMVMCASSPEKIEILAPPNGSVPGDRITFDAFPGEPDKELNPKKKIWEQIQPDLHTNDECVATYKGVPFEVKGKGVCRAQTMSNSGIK

[8] = biological target: T8, HeLa cell extract proteins (Homo sapiens, UniProt P61088)
T8 construct: endogenous in cells; host or cells: HeLa cell extract
T8 sequence (P61088 1-152): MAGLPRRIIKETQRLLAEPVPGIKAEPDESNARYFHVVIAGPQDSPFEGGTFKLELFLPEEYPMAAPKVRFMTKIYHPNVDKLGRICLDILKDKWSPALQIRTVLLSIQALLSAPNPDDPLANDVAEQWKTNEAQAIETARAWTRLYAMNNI

[9] = HeLa, protein MANBA (BETA-MANNOSIDASE PRECURSOR)

T4 sequence (P46109 whole entry): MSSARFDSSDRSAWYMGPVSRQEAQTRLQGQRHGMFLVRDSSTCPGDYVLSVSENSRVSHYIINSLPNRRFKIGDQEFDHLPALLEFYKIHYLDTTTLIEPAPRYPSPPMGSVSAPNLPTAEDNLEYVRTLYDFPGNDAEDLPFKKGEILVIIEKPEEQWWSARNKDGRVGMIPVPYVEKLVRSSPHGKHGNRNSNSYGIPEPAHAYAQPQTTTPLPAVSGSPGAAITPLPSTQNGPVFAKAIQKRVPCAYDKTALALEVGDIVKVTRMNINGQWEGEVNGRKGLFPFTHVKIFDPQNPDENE
T2 sequence (Q06323 whole entry): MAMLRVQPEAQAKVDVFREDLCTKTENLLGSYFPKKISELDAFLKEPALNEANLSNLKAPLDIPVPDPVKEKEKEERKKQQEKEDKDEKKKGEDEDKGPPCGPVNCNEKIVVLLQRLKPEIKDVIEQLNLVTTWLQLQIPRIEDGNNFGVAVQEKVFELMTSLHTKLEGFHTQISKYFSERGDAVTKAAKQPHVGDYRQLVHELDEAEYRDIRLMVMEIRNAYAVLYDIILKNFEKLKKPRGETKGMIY
T1 sequence (O75489 37-264): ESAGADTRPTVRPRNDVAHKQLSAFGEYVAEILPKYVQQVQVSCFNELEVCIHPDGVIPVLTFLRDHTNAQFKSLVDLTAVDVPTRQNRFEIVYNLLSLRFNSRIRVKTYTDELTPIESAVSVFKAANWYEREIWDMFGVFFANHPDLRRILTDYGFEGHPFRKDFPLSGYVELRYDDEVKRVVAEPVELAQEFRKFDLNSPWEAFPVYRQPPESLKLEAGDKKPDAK
T5 sequence (Q13616 whole entry): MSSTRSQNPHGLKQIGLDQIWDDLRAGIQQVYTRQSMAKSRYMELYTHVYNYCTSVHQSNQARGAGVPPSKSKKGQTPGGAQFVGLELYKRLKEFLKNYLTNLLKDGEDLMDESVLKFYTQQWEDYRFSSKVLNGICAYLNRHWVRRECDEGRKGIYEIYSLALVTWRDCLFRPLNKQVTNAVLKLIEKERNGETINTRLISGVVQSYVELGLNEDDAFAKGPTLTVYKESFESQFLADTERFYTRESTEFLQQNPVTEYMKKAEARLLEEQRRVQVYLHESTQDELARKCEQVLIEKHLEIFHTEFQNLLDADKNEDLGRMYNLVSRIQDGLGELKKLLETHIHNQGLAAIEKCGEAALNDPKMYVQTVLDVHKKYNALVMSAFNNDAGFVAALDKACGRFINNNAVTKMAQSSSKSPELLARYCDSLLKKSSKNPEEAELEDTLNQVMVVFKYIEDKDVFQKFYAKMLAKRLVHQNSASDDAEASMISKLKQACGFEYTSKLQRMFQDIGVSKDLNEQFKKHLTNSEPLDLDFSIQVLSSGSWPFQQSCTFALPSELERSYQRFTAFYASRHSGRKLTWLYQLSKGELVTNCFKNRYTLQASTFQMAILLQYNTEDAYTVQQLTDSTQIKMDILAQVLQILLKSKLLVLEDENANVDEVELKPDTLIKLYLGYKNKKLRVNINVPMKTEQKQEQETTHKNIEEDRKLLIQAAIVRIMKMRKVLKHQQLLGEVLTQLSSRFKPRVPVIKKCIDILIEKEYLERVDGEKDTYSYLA

Compound	fold changes relative to vehicle control [1]	fold changes relative to vehicle control [2]	fold changes relative to vehicle control [3]	fold changes relative to vehicle control [4]	fold changes relative to vehicle control ([5]; HeLa, protein CUL1)	fold changes relative to vehicle control ([7]; HeLa, protein SCYE1)	fold changes relative to vehicle control ([8]; HeLa, protein UBE2N)	other results
Nc1nc2cccc(-c3ccccc3)c2n1Cc1ccc(Cl)c(Cl)c1 [compound 3]	0.86	1.04	0.82	1.15	–	–	–	–
Nc1nc2[nH]cc(CCc3ccc(C(=O)N[C@@H](CCC(=O)O)C(=O)O)cc3)c2c(=O)[nH]1 [PTX, pemetrexed]	–	–	–	–	–	–	–	fold changes relative to vehicle control [5]: 1.03; fold changes relative to vehicle control [6]: 0.71; fold changes relative to vehicle control [7]: 0.91; fold changes relative to vehicle control [8]: 1.83
Nc1nc2c(c(=O)[nH]1)N(C=O)C(CNc1ccc(C(=O)N[C@@H](CCC(=O)O)C(=O)O)cc1)CN2 (stereo partly shown) [LEU, leucovorin]	–	–	–	–	0.98	0.85	1.06	fold changes relative to vehicle control ([6]; HeLa, protein MANBA (BETA-M[…])): 1.01
CCCCCCOc1cccc(Cc2cnc(N)nc2N)c1 [compound 2]	1.19	1.35	1	0.96	–	–	–	–
NCCOCCOCC(=O)Nc1nc2ncc(CNc3ccc(C(=O)NC(CCC(=O)O)C(=O)O)cc3)nc2c(=O)[nH]1 (stereo not shown) [compound 6]	–	–	–	–	1.22	0.99	1.78	fold changes relative to vehicle control [6, 9]: 0.71
CCCCCCOc1ccc(Cc2cnc(N)nc2N)cc1 [compound 1]	1.05	0.97	0.88	0.82	–	–	–	–
NCCCNc1ccc(C(=O)NC(CCC(=O)O)C(=O)O)cc1 (stereo not shown) [compound 7]	–	–	–	–	1.02	0.86	1.19	fold changes relative to vehicle control [6, 9]: 0.91
